Measured values taken from patent publication US20160038438A1, “COMBINATION OF NORDIHYDROGUAIARETIC ACID AND AN AMINOGLYCOSIDE” (HELPERBY THERAPEUTICS LIMITED, priority 2013, published 2016).

Assays:
enterobacteria = conditions: cited from earlier work
log phase S. aureus [1] = assay: Chequerboard method, HT013006 (NDGA) with gentamycin, log phase S. aureus; type: cell-based, Staphylococcus aureus; conditions: for MIC before combination: drug alone, log phase S. aureus
Method: Log phase growth of S. aureus was carried out as described in the art. HT013006 in combination with gentamycin against log phase S. aureus using chequerboard method The effects of combination were examined by calculating the fractional inhibitory concentration index (FICI) of each combination, as follows: (MIC of drug A, tested in combination)/(MIC of drug A, tested alone)+(MIC of drug B, tested in combination)/(MIC of drug B, tested alone). The interaction of the combination was defined as showing synergy if the FICI was ≦0.5, no interaction if the FICI was >0.5 but <4.0 and antagonism if the FICI was >4.0.

[2] = tested on: log phase methicillin resistant Staphylococcus aureus clinical strain; assay: Time kill, HT013006 with gentamycin, log phase MRSA clinical strain; type: cell-based
[3] = tested on: log phase Staphylococcus aureus gentamycin resistant clinical strain; assay: Time kill, HT013006 with gentamycin, gentamycin resistant clinical strain; type: cell-based
Method: • 1. HT013006 at 16 and 8 μg/ml had no activities against log phase MRSA. • 2. […] The minimal concentration of HT013006 was 2 μg/ml when combined with 0.5 and 0.25 μg/ml of gentamycin. • (b) log phase phase Staphylococcus aureus gentamycin resistant clinical strain by time kill (340)

yeast pathogens = conditions: against yeast pathogens; cited from earlier work
[4] = tested on: log phase Staphylococcus aureus Oxford strain; assay: Time kill, HT013006 with neomycin, log phase S. aureus Oxford strain; type: cell-based
Method: Using the methods described in Example 2, HT013006 was tested in combination with neomycin against log phase Staphylococcus aureus Oxford strain over a time period of 24 hours.

log phase S. aureus [5] = assay: Time kill curve, HT013006 alone and with gentamycin, log phase S. aureus; type: cell-based, Staphylococcus aureus
Text: HT013006 alone and in combination with gentamycin against log phase S. aureus using time kill curve.

[6] = HT013006 alone at 16, 8, 4 and 2 μg/ml

In the case of Cc1cn([C@H]2C[C@H](N=[N+]=[N-])[C@@H](CO)O2)c(=O)[nH]c1=O [AZT, zidovudine], the “interaction with the aminoglycosides amikacin and gentamycin” value (enterobacteria; against enterobacteria) is listed as “additive or synergistic activity” and the effect on bacteria (enterobacteria; some enterobacteria) is listed as “bactericidal effect”.

For CC(Cc1ccc(O)c(O)c1)C(C)Cc1ccc(O)c(O)c1 (stereo not shown) [HT013006, nordihydroguaiaretic acid], the “MIC of HT013006 in combination” value (log phase S. aureus [1]; combined with 0.25 μg/ml of gentamycin) was 1 µg/mL, the MIC before combination (log phase S. aureus [1]) was 64 µg/mL and the “activity in time kill” value ([2]; HT013006 alone at 16 and 8 μg/ml, log phase MRSA) was “no activities”. The “minimal concentration of HT013006 in combination” value ([2]; combined with 0.5 and 0.25 μg/ml of gentamycin) was 2 µg/mL, the “activity in time kill” value [3, 6] was “no activities” and the “minimal concentration of HT013006 which showed enhanced activities” value ([3]; combined with 4 and 2 μg/ml of gentamycin) was 2 µg/mL. The “effect on amphotericin B activity” value (yeast pathogens) was “enhancing the effect of amphotericin B”, the “activity in time kill” value ([4]; HT013006 alone at 16, 8, 4 and 2 μg/ml, 24 hours) was “no activities” and the “minimal concentration of HT013006 which showed maximal enhanced effect” value ([4]; in combination with neomycin) was 8 µg/mL. For the same compound, the “activity in time kill” value (log phase S. aureus [5]; [6]) was “no activities” and the “activity in time kill” value (log phase S. aureus [5]; HT013006 alone at 16 and 8 μg/ml) was “no activities”.

In the case of gentamycin [reference compound], the “MIC of gentamycin in combination” value (log phase S. aureus [1]; combined with 16 μg/ml of HT013006) was 0.0078 µg/mL, the MIC before combination (log phase S. aureus [1]) was 0.5 µg/mL and the “activity in time kill” value ([3]; gentamycin at 4, 2, 1 and 0.5 ug/ml, strain 17) was “no activities”. For the same compound, the “activity in time kill” value (log phase S. aureus [5]; gentamycin 0.0625 μg/ml) was “no activity”, the “activity in time kill” value (log phase S. aureus [5]; gentamycin 0.125 μg/ml) was “inhibition over 8 hours of treatment, then regrowth was seen” and the regrowth (log phase S. aureus [5]; gentamycin 0.25 μg/ml) was “regrowth was seen after 4 hours”. For the same compound, the kill (log phase S. aureus [5]; gentamycin 0.25 μg/ml, at 4 hours of incubation) was 3 log, the regrowth (log phase S. aureus [5]; gentamycin 0.5 μg/ml) was “regrowth was seen after 2 hours” and the kill (log phase S. aureus [5]; gentamycin 0.5 μg/ml, at 2 hours of incubation) was 3.5 log.
